As a reminder, the IC50 is the concentration that inhibits the measured activity by half. By Kd is commonly meant the concentration at which binding is half-saturated.

In the first assay the test system is MV4-11 cells. Kind of assay: Cell proliferation assay (ATPlite). As to conditions: Homo sapiens, MV4-11, 120 h; MV-411 cells, five days; read-out: In vitro whole cell potency in MV-411 cells, (IC50). Format: cell-based. As to the method: (iv) Cell Proliferation Assay
MV4-11 cells were seeded into a 96-well plate at 1,000 cells/well in 150 μl medium (Alpha-MEM containing 10% FBS, 100 μg/ml Normocin, and 50 μg/ml Gentamycin, Invitrogen). A HP D300 digital dispenser was used to dose cells with DMSO or test compounds across a 10-point range of concentrations (high dose of 10 μM), and cultures were grown in a humidified 5% CO2 incubator at 37° C. After five days, plates were removed from the incubator and equilibrated to room temperature. An equal volume of ATPlite assay reagent was added to each well, and samples were processed according to manufacturer's instructions (Perkin Elmer). Luminescent signal was measured using an Envision plate reader equipped with a US-Luminescence detector.
(In general: Cellular ATP, detected with luciferase, serves as a proxy for viable cell number.)
`CN1CCN(c2cc(F)c(-c3ccc4c(c3)OCO4)cc2NC(=O)c2c[nH]c(=O)cc2C(F)(F)F)CC1` [Example 5, N-(5-(benzo[d][1,3]dioxol-5-yl)-4-fluoro-2-(4-methylpiperazin-1-yl)phenyl)-6-oxo-4-(trifluoromethyl)-1,6-dihydropyridine-3-carboxamide]: the IC50 amounted to 0.881 µM.

As to `CN1CCN(c2cc(F)c(-c3ccc(CN4CCOCC4)nc3)cc2NC(=O)c2c[nH]c(=O)cc2C(F)(F)F)CC1` [Example 41, N-[4-fluoro-2-(4-methylpiperazin-1-yl)-5-[6-(morpholin-4-ylmethyl)pyridin-3-yl]phenyl]-6-oxo-4-(trifluoromethyl)-1H-pyridine-3-carboxamide], the IC50 was determined as 0.213 µM. The same measure, in the same setting: then `CN1CCN(c2cc(F)c(-c3cnc(NC4CC4)nc3)cc2NC(=O)c2c[nH]c(=O)cc2C(F)(F)F)CC1` [Example 10, N-(5-(2-(cyclopropylamino)pyrimidin-5-yl)-4-fluoro-2-(4-methylpiperazin-1-yl)phenyl)-6-oxo-4-(trifluoromethyl)-1,6-dihydropyridine-3-carboxamide], with > 10 µM. In the case of `CN(C)[C@@H]1CCN(c2cc(F)c(-c3cnc(N4CCOCC4)nc3)cc2NC(=O)c2c[nH]c(=O)cc2C(F)(F)F)C1` [Example 37, N-[2-[(3R)-3-(dimethylamino)pyrrolidin-1-yl]-4-fluoro-5-(2-morpholin-4-ylpyrimidin-5-yl)phenyl]-6-oxo-4-(trifluoromethyl)-1H-pyridine-3-carboxamide], the 50% inhibitory concentration (IC50) turned out to be 0.054 µM.

In the case of `CN1CCN(c2cc(F)c(C3=CCNCC3)cc2NC(=O)c2c[nH]c(=O)cc2C(F)(F)F)CC1` [Example 23, N-[4-fluoro-2-(4-methylpiperazin-1-yl)-5-(1,2,3,6-tetrahydropyridin-4-yl)phenyl]-6-oxo-4-(trifluoromethyl)-1H-pyridine-3-carboxamide], the IC50 was > 10 µM.

Turning to `CN1CCN(c2cc(F)c(C3=CCOCC3)cc2NC(=O)c2c[nH]c(=O)cc2C(F)(F)F)CC1` [Example 22, N-[5-(3,6-dihydro-2H-pyran-4-yl)-4-fluoro-2-(4-methylpiperazin-1-yl)phenyl]-6-oxo-4-(trifluoromethyl)-1H-pyridine-3-carboxamide], the half-inhibitory concentration (IC50) was found to be 5.27 µM. `CN(C)[C@H]1CCN(c2cc(F)c(-c3cnc(N4CCOCC4)nc3)cc2NC(=O)c2c[nH]c(=O)cc2C(F)(F)F)C1` [Example 38, N-[2-[(3S)-3-(dimethylamino)pyrrolidin-1-yl]-4-fluoro-5-(2-morpholin-4-ylpyrimidin-5-yl)phenyl]-6-oxo-4-(trifluoromethyl)-1H-pyridine-3-carboxamide]: the IC50 was found to be 4.07 µM. For the molecule `CN1CCN(c2cc(F)c(-c3cnc(N4CCCC4)nc3)cc2NC(=O)c2c[nH]c(=O)cc2C(F)(F)F)CC1` [Example 9, N-(4-fluoro-2-(4-methylpiperazin-1-yl)-5-(2-(pyrrolidin-1-yl)pyrimidin-5-yl)phenyl)-6-oxo-4-(trifluoromethyl)-1,6-dihydropyridine-3-carboxamide], the IC50 is 0.507 µM. With `C[C@@H]1CN(c2cc(F)c(-c3cnc(N4CCOCC4)nc3)cc2NC(=O)c2c[nH]c(=O)cc2C(F)F)C[C@H](C)N1C` [Example 34, 4-(difluoromethyl)-N-[4-fluoro-5-(2-morpholin-4-ylpyrimidin-5-yl)-2-[(3S,5R)-3,4,5-trimethylpiperazin-1-yl]phenyl]-6-oxo-1H-pyridine-3-carboxamide], the IC50 came out at 0.038 µM. For `Cc1ncc(-c2cc(NC(=O)c3c[nH]c(=O)cc3C(F)(F)F)c(N3CCN(C)CC3)cc2F)cn1` [Example 13, N-(4-fluoro-2-(4-methylpiperazin-1-yl)-5-(2-methylpyrimidin-5-yl)phenyl)-6-oxo-4-(trifluoromethyl)-1,6-dihydropyridine-3-carboxamide], the IC50 is > 10 µM.

For `CC1CN(c2cc(F)c(-c3ccc(N4CCOCC4)c(F)c3)cc2NC(=O)c2c[nH]c(=O)cc2C(F)(F)F)CCN1C` (stereo in doubt) [Example 201, N-[4-fluoro-5-(3-fluoro-4-morpholin-4-ylphenyl)-2-[(3R)-3,4-dimethylpiperazin-1-yl]phenyl]-6-oxo-4-(trifluoromethyl)-1H-pyridine-3-carboxamide], the IC50 is 0.113 µM.

In the case of `CN(C)C1CCN(c2cc(F)c(-c3cccc(CN4CCOCC4)c3)cc2NC(=O)c2c[nH]c(=O)cc2C(F)(F)F)C1` (stereo not drawn) [Example 53, N-(4-(3-(dimethylamino)pyrrolidin-1-yl)-6-fluoro-3′-(morpholinomethyl)-[1,1′-biphenyl]-3-yl)-6-oxo-4-(trifluoromethyl)-1,6-dihydropyridine-3-carboxamide], the IC50 was > 10 µM. Consider `C[C@@H]1CN(c2cc(F)c(-c3cccc(N4CCOCC4)n3)cc2NC(=O)c2c[nH]c(=O)cc2C(F)(F)F)C[C@H](C)N1C` [Example 473, N-[4-fluoro-5-(6-morpholin-4-ylpyridin-2-yl)-2-[(3R,5S)-3,4,5-trimethylpiperazin-1-yl]phenyl]-6-oxo-4-(trifluoromethyl)-1H-pyridine-3-carboxamide], for which the IC50 worked out at 0.032 µM. On the same count and under the same terms, then `CN1CCN(c2cc(F)ccc2NC(=O)c2c[nH]c(=O)cc2C(F)(F)F)CC1` [Example 24, N-[4-fluoro-2-(4-methylpiperazin-1-yl)phenyl]-6-oxo-4-(trifluoromethyl)-1H-pyridine-3-carboxamide], with > 10 µM. The same measure, in the same setting: under `C[C@@H]1CN(c2cc(F)c(-c3cnc(C#N)nc3)cc2NC(=O)c2c[nH]c(=O)cc2C(F)(F)F)C[C@H](C)N1C` [Example 31, N-[5-(2-cyanopyrimidin-5-yl)-4-fluoro-2-[(3S,5R)-3,4,5-trimethylpiperazin-1-yl]phenyl]-6-oxo-4-(trifluoromethyl)-1H-pyridine-3-carboxamide] stands 0.571 µM. Still for that read-out and setting: then `CN1CCN(c2cc(F)c(-c3ccc(N4CCOCC4)nc3)cc2NC(=O)c2c[nH]c(=O)cc2C(F)(F)F)CC1` [Example 4, N-(4-fluoro-2-(4-methylpiperazin-1-yl)-5-(6-morpholinopyridin-3-yl)phenyl)-6-oxo-4-(trifluoromethyl)-1,6-dihydropyridine-3-carboxamide], with 0.574 µM. With `C[C@@H]1CN(c2cc(F)c(-c3ccnc(N(C)C)n3)cc2NC(=O)c2c[nH]c(=O)cc2C(F)(F)F)C[C@H](C)N1C` [Example 540, N-[5-[2-(dimethylamino)pyrimidin-4-yl]-4-fluoro-2-[(3R,5S)-3,4,5-trimethylpiperazin-1-yl]phenyl]-6-oxo-4-(trifluoromethyl)-1H-pyridine-3-carboxamide], the IC50 was determined as 0.027 µM. Still for that read-out and setting: under `CN1CCN(c2cc(F)c(-c3cnc(O)nc3)cc2NC(=O)c2c[nH]c(=O)cc2C(F)(F)F)CC1` [Example 15, N-(4-fluoro-5-(2-hydroxypyrimidin-5-yl)-2-(4-methylpiperazin-1-yl)phenyl)-6-oxo-4-(trifluoromethyl)-1,6-dihydropyridine-3-carboxamide] stands > 10 µM; under `CN1CCN(c2cc(F)c(-c3cnc(C#N)nc3)cc2NC(=O)c2c[nH]c(=O)cc2C(F)(F)F)CC1` [Example 16, N-(5-(2-cyanopyrimidin-5-yl)-4-fluoro-2-(4-methylpiperazin-1-yl)phenyl)-6-oxo-4-(trifluoromethyl)-1,6-dihydropyridine-3-carboxamide], 0.844 µM.

The target in a further assay is WDR5 (Homo sapiens (Human), UniProt P61964). As to the kind of experiment: Surface Plasmon Resonance (SPR) assay, KD and residence time. The assay is classed as binding. Conditions: surface plasmon resonance (SPR) assay; read-out: WDR5 binding affinity (KD). For orientation: SPR reads the build-up and loss of mass on a sensor chip optically.
Take `C[C@@H]1CN(c2cc(F)c(-c3ccnc(OCC4CC4)c3)cc2NC(=O)c2c[nH]c(=O)cc2C(F)(F)F)C[C@H](C)N1C` [Example 66, N-[5-[2-(cyclopropylmethoxy)pyridin-4-yl]-4-fluoro-2-[(3R,5S)-3,4,5-trimethylpiperazin-1-yl]phenyl]-6-oxo-4-(trifluoromethyl)-1H-pyridine-3-carboxamide]: the Kd was determined as 0.00116 µM. Regarding `C[C@@H]1CN(c2cc(F)c(C3=CCNC3)cc2NC(=O)c2c[nH]c(=O)cc2C(F)(F)F)C[C@H](C)N1C` [Example 329, N-[5-(2,5-dihydro-1H-pyrrol-3-yl)-4-fluoro-2-[(3R,5S)-3,4,5-trimethylpiperazin-1-yl]phenyl]-6-oxo-4-(trifluoromethyl)-1H-pyridine-3-carboxamide], the dissociation constant Kd amounted to 0.00405 µM.

Still in this assay, the particulars now being: surface plasmon resonance (SPR); read-out: WDR5 binding affinity (KD).
In the case of `C[C@@H]1CN(c2cc(F)c(-c3cc(F)c(C(=O)NCC4CC4)c(F)c3)cc2NC(=O)c2c[nH]c(=O)cc2C(F)(F)F)C[C@H](C)N1C` [Example 712, N-[5-[4-(cyclopropylmethylcarbamoyl)-3,5-difluorophenyl]-4-fluoro-2-[(3R,5S)-3,4,5-trimethylpiperazin-1-yl]phenyl]-6-oxo-4-(trifluoromethyl)-1H-pyridine-3-carboxamide], the Kd worked out at 0.00223 µM. Same read-out and setting: under `C[C@@H]1CN(c2ncc(-c3cc(NC(=O)c4c[nH]c(=O)cc4C(F)(F)F)c(N4CCC(N(C)C)C4)cc3F)cn2)C[C@H](C)O1` (stereo in doubt) [Example 417, N-[4-fluoro-2-[(3S)-3-(dimethylamino)pyrrolidin-1-yl]-5-[2-[(2R,6S)-2,6-dimethylmorpholin-4-yl]pyrimidin-5-yl]phenyl]-6-oxo-4-(trifluoromethyl)-1H-pyridine-3-carboxamide] stands 0.00141 µM. On the same count and under the same terms, under `C[C@@H]1CN(c2cc(F)c(-c3ncc(C(=O)N(C)CC4CC4)s3)cc2NC(=O)c2c[nH]c(=O)cc2C(F)(F)F)C[C@H](C)N1C` [Example 497, N-(cyclopropylmethyl)-2-[2-fluoro-5-[[6-oxo-4-(trifluoromethyl)-1H-pyridine-3-carbonyl]amino]-4-[(3R,5S)-3,4,5-trimethylpiperazin-1-yl]phenyl]-N-methyl-1,3-thiazole-5-carboxamide] stands 0.00259 µM.

These data come from US11319299B2, “Substituted carboxamides as inhibitors of WDR5 protein-protein binding” (PROPELLON THERAPEUTICS INC., priority 2016, dated 2022).
